The record followed here is patent US8084466B2, “Bicyclic heteroaryl-substituted imidazoles as modulators of the histamine H4 receptor” (Janssen Pharmaceutica NV, priority 2007, dated 2011).

The assay addresses T1, human histamine H4 receptor (Homo sapiens, UniProt Q9H3N8).
T1 construct: expressed in transfected cells; host or cells: SK-N-MC cells or COS7 cells, transient transfection with pH4R; cell membranes
The assay can be described thus: Binding Assay on Recombinant Human Histamine H4 Receptor. To be noted: competition binding with 3H-histamine (5 nM; KD 5 nM), membranes of SK-N-MC or COS7 cells expressing human H4 receptor; average of results; > = highest value tested. How it is done: Biological Methods: Binding Assay on Recombinant Human Histamine H4 Receptor
SK-N-MC cells or COS7 cells were transiently transfected with pH4R and grown in 150 cm^2 tissue culture dishes. Cells were washed with saline solution, scraped with a cell scraper and collected by centrifugation (1000 rpm, 5 min). Cell membranes were prepared by homogenization of the cell pellet in 20 mM Tris-HCl with a polytron tissue homogenizer for 10 sec at high speed. Homogenate was centrifuged at 1000 rpm for 5 min at 4° C. The supernatant was then collected and centrifuged at 20,000×g for 25 min at 4° C. The final pellet was resuspended in 50 mM Tris-HCl. Cell membranes were incubated with ^3H-histamine (5-70 nM) in the presence or absence of excess histamine (10,000 nM). Incubation occurred at room temperature for […]. Membranes were harvested by rapid filtration over Whatman GF/C filters and washed 4 times with ice-cold 50 mM Tris HCl. Filters were then dried, mixed with scintillant and counted for radioactivity. SK-N-MC or COS7 cells expressing human histamine H4 receptor were used to measure the affinity of binding of other compounds and their ability to displace ^3H-ligand binding by incubating the above-described reaction in the presence of various concentrations of inhibitor or compound to be tested. For competition binding studies using ^3H-histamine, Ki values were calculated, based on an experimentally determined KD value of 5 nM and a ligand concentration of 5 nM, according to Y.-C.

SMILES strings stand for the structures.

T1 sequence (Q9H3N8 whole entry): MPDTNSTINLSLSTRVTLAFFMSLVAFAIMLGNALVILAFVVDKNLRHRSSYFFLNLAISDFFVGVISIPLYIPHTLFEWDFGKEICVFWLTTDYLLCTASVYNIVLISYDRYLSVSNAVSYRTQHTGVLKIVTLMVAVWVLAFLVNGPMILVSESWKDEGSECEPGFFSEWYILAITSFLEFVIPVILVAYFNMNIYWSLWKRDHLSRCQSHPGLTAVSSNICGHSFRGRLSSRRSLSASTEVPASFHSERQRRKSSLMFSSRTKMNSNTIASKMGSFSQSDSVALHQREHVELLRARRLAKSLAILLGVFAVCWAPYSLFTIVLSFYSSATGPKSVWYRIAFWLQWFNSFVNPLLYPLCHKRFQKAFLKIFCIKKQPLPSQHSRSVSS

`Cc1c(-c2nc3c(C)c(F)ccc3[nH]2)ccc2c1CCN2CCCC1CCN(C)CC1` [Example 1, 5-Fluoro-4-methyl-2-{4-methyl-1-[3-(1-methyl-pieridin-4-yl)-proyl]-2,3-dihydro-1H-indol-5-yl}-1H-benzoimidazole]: the Ki worked out at 29 nM. `Cc1ccc2[nH]c(-c3ccc4c(c3C)CCN4CCCC3CCN(C)CC3)nc2c1C` [Example 2, 4,5-Dimethyl-2-{4-methyl-1-[3-(1-methyl-piperidin-4-yl)-propyl]-2,3-dihydro-1H-indol-5-yl}-1H-benzoimidazole]: the inhibition constant (Ki) turned out to be 15 nM. In the case of `Cc1cc(C)c2nc(-c3ccc4c(c3Cl)CCN4CCCC3CCN(C)CC3)[nH]c2c1` [Example 3, 2-{4-Chloro-1-[3-(1-methyl-piperidin-4-yl)-propyl]-2,3-dihydro-1H-indol-5-yl}-4,6-dimethyl-1H-benzoimidazole], the Ki amounted to 33 nM. With `Cc1c(F)ccc2[nH]c(-c3ccc4c(c3Cl)CCN4CCCC3CCN(C)CC3)nc12` [Example 4, 2-{4-Chloro-1-[3-(1-methyl-piperidin-4-yl)-propyl]-2,3-dihydro-1H-indol-5-yl}-5-fluoro-4-methyl-1H-benzoimidazole], the Ki amounted to 34 nM. For `COC(=O)c1ccc2[nH]c(-c3ccc4c(c3Cl)CCN4CCCC3CCN(C)CC3)nc2c1` [Example 5, 2-{4-Chloro-1-[3-(1-methyl-piperidin-4-yl)-propyl]-2,3-dihydro-1H-indol-5-yl}-1H-benzoimidazole-5-carboxylic acid methyl ester], the inhibition constant Ki was found to be 76 nM.

For `Cc1c(F)ccc2[nH]c(-c3ccc4c(c3F)CCN4CCCC3CCN(C)CC3)nc12` [Example 6, 5-Fluoro-2-{4-fluoro-1-[3-(1-methyl-piperidin-4-yl)-propyl]-2,3-dihydro-1H-indol-5-yl}-4-methyl-1H-benzoimidazole], the Ki is 123 nM. As for `Cc1c(-c2nc3c(C)c(F)ccc3[nH]2)ccc2c1ccn2CCCC1CCN(C)CC1` [Example 7, 5-Fluoro-4-methyl-2-{4-methyl-1-[3-(1-methyl-piperidin-4-yl)-propyl]-1H-indol-5-yl}-1H-benzoimidazole], the Ki turned out to be 29 nM. As for `Cc1c(F)ccc2[nH]c(-c3ccc4c(ccn4CCCC4CCN(C)CC4)c3Cl)nc12` [Example 8, 2-{4-Chloro-1-[3-(1-methyl-piperidin-4-yl)-propyl]-1H-indol-5-yl}-5-fluoro-4-methyl-1H-benzoimidazole], the figure is 29 nM.

Take `Cc1cc(C)c2nc(-c3ccc4c(ccn4CCCC4CCN(C)CC4)c3Cl)[nH]c2c1` [Example 9, 2-{4-Chloro-1-[3-(1-methyl-piperidin-4-yl)-propyl]-1H-indol-5-yl}-4,6-dimethyl-1H-benzoimidazole]: the Ki turned out to be 14 nM. Regarding `Cc1c(-c2nc3cc(Cl)ccc3[nH]2)ccc2c1ccn2CCCC1CCN(C)CC1` [Example 10, 5-Chloro-2-{4-methyl-1-[3-(1-methyl-piperidin-4-yl)-propyl]-1H-indol-5-yl}-1H-benzoimidazole], the Ki amounted to 19 nM. Take `Cc1c(F)ccc2[nH]c(-c3ccc4c(ccn4CCCC4CCN(C)CC4)c3)nc12` [Example 11, 5-Fluoro-4-methyl-2-{1-[3-(1-methyl-piperidin-4-yl)-propyl]-1H-indol-5-yl}-1H-benzoimidazole]: the Ki is 77 nM.

Consider `Cc1cccc2[nH]c(-c3ccc4c(ccn4CCCC4CCN(C)CC4)c3)nc12` [Example 12, 4-Methyl-2-{1-[3-(1-methyl-piperidin-4-yl)-propyl]-1H-indol-5-yl}-1H-benzoimidazole], for which the Ki amounted to 120 nM. With `Cc1c(F)ccc2[nH]c(-c3ccc4c(ccn4CCCN4CCN(C)CC4)c3)nc12` [Example 13, 5-Fluoro-4-methyl-2-{1-[3-(4-methyl-piperazin-1-yl)-propyl]-1H-indol-5-yl}-1H-benzoimidazole], the Ki was found to be 168 nM. For the molecule `Cc1cc(C)c2nc(-c3ccc4c(c3)c(C)c(C)n4CCCC3CCN(C)CC3)[nH]c2c1` [Example 14, 2-{2,3-Dimethyl-1-[3-(1-methyl-piperidin-4-yl)-propyl]-1H-indol-5-yl}-4,6-dimethyl-1H-benzoimidazole], the Ki stood at 84 nM. As for `Cc1c(C)n(CCCC2CCN(C)CC2)c2ccc(-c3nc4c(C)c(F)ccc4[nH]3)cc12` [Example 15, 2-{2,3-Dimethyl-1-[3-(1-methyl-piperidin-4-yl)-propyl]-1H-indol-5-yl}-5-fluoro-4-methyl-1H-benzoimidazole], the figure is 110 nM; as for `Cc1c(F)ccc2[nH]c(-c3cccc4c3ccn4CCCCC3CCN(C)CC3)nc12` [Example 16, 5-Fluoro-4-methyl-2-{1-[4-(1-methyl-piperidin-4-yl)-butyl]-1H-indol-4-yl}-1H-benzoimidazole], 23 nM; as for `CN1CCC(CCCCn2ccc3c(-c4nc5c(Cl)cccc5[nH]4)cccc32)CC1` [Example 17, 4-Chloro-2-{1-[4-(1-methyl-piperidin-4-yl)-butyl]-1H-indol-4-yl}-1H-benzoimidazole], 58 nM. For `CN1CCC(CCCCn2ccc3c(-c4nc5cc(C(F)(F)F)ccc5[nH]4)cccc32)CC1` [Example 18, 2-{1-[4-(1-Methyl-piperidin-4-yl)-butyl]-1H-indol-4-yl}-5-trifluoromethyl-1H-benzoimidazole], the Ki came out at 85 nM.

Take `CN1CCC(CCCCn2ccc3c(-c4nc5cc6c(cc5[nH]4)OCO6)cccc32)CC1` [Example 19, 6-{1-[4-(1-Methyl-piperidin-4-yl)-butyl]-1H-indol-4-yl}-5H-[1,3]dioxolo[4′,5′:4,5]benzo[1,2-d] imidazole]: the Ki was found to be 404 nM. For the molecule `CN1CCC(CCCCn2ccc3c(-c4nc5cc(C(=O)c6ccccc6)ccc5[nH]4)cccc32)CC1` [Example 20, (2-{1-[4-(1-Methyl-piperidin-4-yl)-butyl]-1H-indol-4-yl}-1H-benzoimidazol-5-yl)-phenyl-methanone], the Ki was found to be 619 nM.

For `CN1CCC(CCCCn2ccc3c(-c4nc5cc6ccccc6cc5[nH]4)cccc32)CC1` [Example 21, 2-{1-[4-(1-Methyl-piperidin-4-yl)-butyl]-1H-indol-4-yl}-1H-naphtho[2,3-d]imidazole], the Ki was 187 nM. For the molecule `Cc1cc(Cl)cc2[nH]c(-c3cccc4c3ccn4CCCCC3CCN(C)CC3)nc12` [Example 22, 6-Chloro-4-methyl-2-{1-[4-(1-methyl-piperidin-4-yl)-butyl]-1H-indol-4-yl}-1H-benzoimidazole], the Ki worked out at 105 nM.

Consider `Cc1cccc2[nH]c(-c3cccc4c3ccn4CCCCC3CCN(C)CC3)nc12` [Example 23, 4-Methyl-2-{1-[4-(1-methyl-piperidin-4-yl)-butyl]-1H-indol-4-yl}-1H-benzoimidazole], for which the Ki came to 98 nM.

For the molecule `CN1CCC(CCCCn2ccc3c(-c4nc5cc(C(C)(C)C)ccc5[nH]4)cccc32)CC1` [Example 24, 5-tert-Butyl-2-{1-[4-(1-methyl-piperidin-4-yl)-butyl]-1H-indol-4-yl}-1H-benzoimidazole], the Ki was 40 nM. Then `Cc1cc(C)c2nc(-c3ccc4ccn(CCCCC5CCN(C)CC5)c4c3)[nH]c2c1` [Example 25, 4,6-Dimethyl-2-{1-[4-(1-methyl-piperidin-4-yl)-butyl]-1H-indol-6-yl}-1H-benzoimidazole], with 350 nM; and `Cc1c(F)ccc2[nH]c(-c3ccc4ccn(CCCCC5CCN(C)CC5)c4c3)nc12` [Example 26, 5-Fluoro-4-methyl-2-{1-[4-(1-methyl-piperidin-4-yl)-butyl]-1H-indol-6-yl}-1H-benzoimidazole], with 880 nM.

For orientation: Ki means the equilibrium dissociation constant of an inhibitor or competing ligand from its target.
